Laboratory results: PMC4189182 (Journal of cardiac failure, 2014)

Columns and labels:
[1] = human, in vivo
[2] = in vivo; cited from earlier work

Compound: CC[C@H](C)[C@@H]1NC(=O)[C@H](CCCNC(=N)N)NC(=O)[C@H](CC(=O)O)NC(=O)[C@H](CCSC)NC(=O)[C@H](CCCCN)NC(=O)[C@H](CCCNC(=N)N)NC(=O)CNC(=O)[C@H](Cc2ccccc2)NC(=O)[C@@H](NC(=O)CNC(=O)[C@H](CO)NC(=O)CNC(=O)[C@H](CCC(N)=O)NC(=O)[C@@H](NC(=O)[C@H](CCSC)NC(=O)[C@H](CCCCN)NC(=O)[C@@H]2CCCN2C(=O)[C@@H](N)CO)C(C)C)CSSC[C@@H](C(=O)N[C@@H](CCCCN)C(=O)N[C@H](C(=O)N[C@@H](CC(C)C)C(=O)N[C@@H](CCCN=C(N)N)C(=O)N[C@@H](CCCN=C(N)N)C(=O)N[C@@H](Cc2cnc[nH]2)C(=O)O)C(C)C)NC(=O)CNC(=O)[C@H](CC(C)C)NC(=O)CNC(=O)[C@H](CO)NC(=O)[C@H](CO)NC(=O)[C@H](CO)NC(=O)[C@H](CO)NC1=O [nesiritide]
- Halflife [1]: 14.4 min
- increase in Clearance associated with genotype at rs6798179 (MME) ([1]; iv): roughly 50%
- increase in K associated with genotype at rs6798179 (MME) ([1]; iv): roughly 50%
- range of Adjusted BNP Clearance ([1]; iv): 0.1 to 67 mL/min
- range of BNP Clearance ([1]; iv): 0.027 to 7.25 mL/min
- range of Half-life ([1]; iv): 6.6 to 56.4 min
- range of K ([1]; iv): 0.002-9.7
- range of ΔBNP ([1]; iv): 14 to 7900 pg/mL
- smaller change in BNP due to infusion associated with genotype at rs6798179 (MME) ([1]; iv): ~40%
- previously reported average half-life [2]: roughly 18 minutes
